Legend:
[1] = tested on: PRPs (single primary neurospheres); assay: Self-renewal by single sphere dissociation (secondary neurospheres); format: cell-based; details: for secondary neurospheres per single primary PDGF-generated neurosphere: passaged into the named factor(s)
Method: Self-renewal capacity was examined by single sphere dissociation. Briefly, single 6 DIV neurospheres of equivalent size that were generated in the presence of EGF, PDGF-AA, or PDGF-AA and SHH were transferred into 96 well plates and mechanically dissociated. Dissociates were cultured in MHM supplemented with EGF, FGF2 (includes 2 μg/ml HS), FGF2 and SHH, PDGF-AA, PDGF-AA and SHH, PDGF-AA and FGF2, PDGF-AA and FGF2 and SHH, PDGF-AA and DMSO (0.1%), PDGF-AA and SHH, or PDGF-AA and FGF2 and cyclopamine. The number of secondary neurospheres generated was counted after 9 DIV.

[2] = tested on: PDGF-responsive neural precursors (PRPs) from dissociated E14 MGE/LGE; assay: Primary neurosphere generation from dissociated E14 ganglionic eminences; format: cell-based, mouse
Method: Cell culture. The culture medium (MHM) was composed of DMEM/F-12 (1:1) including HEPES buffer (5 mM), glucose (0.6%), sodium bicarbonate (3 mM), glutamine (2 mM), insulin (25 μg/ml), transferrin (100 μg/ml), progesterone (20 nM), putrescine (10 μM), and sodium selenite (30 nM; all from Sigma, St. Louis, Mo., except glutamine from Invitrogen, Carlsbad, Calif.). The lateral, medial, or both ganglionic eminences (LGE, MGE or both) were removed from Embryonic Day 14 (E14) mouse embryos and mechanically dissociated with a fire-polished Pasteur pipette in MHM. Cells were plated at a density of […] unless otherwise indicated.
For neurosphere generation, PDGF-AA (100 ng/ml; Peprotech, Rocky Hill, N.J.), PDGF-BB (100 ng/ml; Peprotech), EGF (20 ng/ml; Peprotech), FGF2 (20 ng/ml; R&D [Minneapolis, Minn.])+heparan sulfate (2 μg/ml; HS; R&D), SHH (2 ug/ml; R&D), cyclopamine (5 μM; Toronto Research Chemicals, North York, Ontario), and/or DMSO (0.1%; carrier) was added to the MHM. MHM used to generate neurospheres also contained 2% B27 (Invitrogen).
[…] is one of the earliest markers of OLPs, and signaling by PDGF-AA is required for the generation of most oligodendrocytes (Fruttiger et al., Development 126:457 (1999)). Increasing concentrations of PDGF-AA were used to determine whether stimulation of dissociated E14 medial and lateral ganglionic eminences. (MGE and LGE, respectively) results in generation of neurospheres. The neurosphere assay was used because manipulation of primary cells is minimal compared to the immunopanning procedures used to isolate O-2A progenitors.
The effect of brain-derived neurotrophic factor (BDNF), neurotrophin-3 (NT-3), and nerve growth factor (NGF) on PRPs was determined. Cells were cultured as previously reported (Chojnacki et al., J Neurosci 24(48):10888 2004) in the presence of various combinations of PDGF, brain-derived neurotrophic factor (BDNF), NT-3, nerve growth factor (NGF), and the effects on neurosphere generation characterized. MHM is the defined medium used in cultures without growth factor.

dissociated E14 MGEs = assay: Clonality test: GFP and CD1 E14 MGE cells co-cultured 1:1 in PDGF-AA; format: cell-based, mouse; details: 100 ng/ml PDGF-AA, 20,000 cells/ml, GFP:CD1 1:1
Description: PDGF is also known to have chemotaxic effects on cortical NSCs (Forsberg-Nilsson et al., J Neurosci Res 53:521 (1998)), and thus it was possible that neurospheres generated under PDGF stimulation resulted from the directed migration of NSCs along the culture dish into clumps that resembled clonally-derived neurospheres. This possibility was studied, as previously described (Represa et al., Eur J Neurosci 14:452 (2001)), by culturing dissociated E14 MGEs from CD1 and TgN(GFPU)5Nagy (ubiquitous green fluorescent protein [GFP]-expressing) mice together, 1:1, at 20,000 cells/ml, and in the presence of 100 ng/ml of PDGF-AA. If cell clumping generates the majority of the neurospheres, then most neurospheres should contain both GFP- and non-GFP-expressing cells. However, 95±11% of the neurospheres were not chimeric for GFP expression (p<0.01; Tukey HSD; n=3) (FIGS. 1C-D), and there was no difference in the number of GFP- or non-GFP-expressing neurospheres produced (p>0.65; Tukey HSD; n=3) (FIG. 1D).

PRPs = assay: GFP-expressing PDGF neurosphere dissociates plated on EGF-generated feeder layer; format: cell-based, mouse; details: PDGF with EGF feeder layer
Description: To determine if extrinsic factors could promote self-renewal of PRPs, individual, 7 DIV, GFP-expressing, PDGF-generated neurospheres were isolated, dissociated in the presence of PDGF-AA, and differentiated on coverslips that had been plated 2 days earlier with or without 0.2×10^6 cells/ml of EGF-generated cells from dissociated primary EGF neurospheres. EGF-generated feeder cells had been allowed to differentiate for 2 days in the presence of 1% FBS. Plates were rinsed 3× with MHM prior to the addition of GFP-expressing, PDGF-generated dissociates. Numbers of adherent clones and cells per clone were assessed by GFP expression. All images were captured with a Photometrics Coolsnap digital camera (Tuscon, Ariz.) mounted on a Leica Microsystems DMIL inverted fluorescence microscope with Coolsnap V1.2.0 software.
However, these studies employed a defined culture media in which some factors required for self-renewal may be missing. To further study PRP self-renewal, primary PDGF neurospheres from the E14 MGEs of TgN(GFPU)5Nagy mice were grown for 7 DIV, individual neurospheres dissociated and transferred from single neurospheres onto poly-L-omithine coated coverslips that had been plated with or without 200,000 primary 7 DIV EGF-generated progeny 2 days earlier.

NSC = assay: FGF2-induced NSC proliferation; format: cell-based; details: 1 μM SU5402
[3] = tested on: PDGF-generated neurospheres; assay: Differentiation of primary PDGF-AA-generated neurospheres, immunocytochemistry; format: cell-based, mouse
[4] = 6 DIV neurospheres differentiated 3 DIV

For “EGF: epidermal growth factor, 20 ng/ml; Peprotech (NSDSECPLSHDGYCLHDGVCMYIEALDKYACNCVVGYIGERCQYRDLKWWELR; Epidermal growth factor; UniProt P01133 971-1023, looked up)”, the “secondary neurospheres per single primary PDGF-generated neurosphere” value [1] was 3±1.

With “FGF2: fibroblast growth factor 2, 20 ng/ml, with heparan sulfate 2 μg/ml” the “secondary neurospheres per single primary PDGF-generated neurosphere” value [1] was 3±1 and the “secondary neurospheres / self-renewal compared with passage in PDGF” value ([1]; primary PDGF-generated neurospheres passaged into the named factor(s)) was “No increase in self-renewal”.

For `CC1=C2C[C@H]3[C@@H](CC=C4C[C@@H](O)CC[C@@]43C)[C@@H]2CC[C@]12O[C@@H]1C[C@H](C)CN[C@H]1[C@H]2C` [cyclopamine, reference compound], the neurosphere size ([2]; 5 μM cyclopamine with 100 ng/ml PDGF-AA) was “smaller”, the “reduction in number of PDGF-AA-generated neurospheres” value ([2]; 5 μM cyclopamine with 100 ng/ml PDGF-AA, MGE 10,000 cells/ml, vs PDGF-AA+DMSO) was 5 fold and the non-specific toxic effect ([2]; 5 μM cyclopamine, phase-bright differentiating cells present) was “likely not a result of a non-specific toxic effect”. The “secondary neurospheres per primary PDGF-generated neurosphere” value ([1]; cyclopamine added to PDGF and FGF2) was 3±1.

For “PDGF-AA: platelet-derived growth factor AA, 100 ng/ml; Peprotech”, the “neurospheres not chimeric for GFP expression” value (dissociated E14 MGEs) was 95±11%, the neurospheres produced ([2]; 100 ng/ml PDGF-AA, dissociated E14 MGE and LGE, n=3) was 12±1 neurospheres per 10,000 plated cells and the “number of primary neurospheres generated” value ([2]; dissociated MGEs, SHH 2 μg/ml, n=8) was 60±9. For the same molecule, the “neurosphere production versus concentration” value ([2]; increasing concentrations of PDGF-AA) was “induced neurosphere production in a dose-dependent manner”, the “adherent GFP-labeled clones” value (PRPs) was “many clones of GFP-labeled cells that contained greater than 10 cells” and the “secondary neurospheres per single primary EGF-generated neurosphere” value ([1]; passaged into PDGF-AA) was 26±5. The “secondary neurospheres per single primary PDGF-generated neurosphere” value [1] was 1±1.

With `Cc1c[nH]c(/C=C2\C(=O)Nc3ccccc32)c1CCC(=O)O` [SU5402, reference compound] the “block of FGF2-induced NSC proliferation” value (NSC) was 90% and the “primary PDGF neurosphere formation” value ([2]; 1 μM SU5402) was “unaffected”.

In the case of `N[C@@H](Cc1cc(I)c(Oc2ccc(O)c(I)c2)c(I)c1)C(=O)O` [T3, triiodothyronine], the “increase in differentiation of oligodendrocytes (O4)” value ([3]; 20 ng/ml T3, 2 DIV, vs 1% FBS) is reported as 5 fold, the MBP-only clones ([3]; 2 DIV) is reported as “increased the number of MBP-only clones” and the “MBP-expressing cells produced per clone” value ([3]; 2 DIV, vs 1% FBS, BMP-2, and T3 and BMP-2) is reported as “significantly increased the number of MBP-expressing cells produced per clone”. The “GFAP-immunoreactive astrocytes per neurosphere” value [3, 4] was “no astrocytes” and the “MBP-immunoreactive oligodendrocytes per neurosphere” value [3, 4] was 3.9±0.4.
